In patent US20180000778A1, “SMALL MOLECULE ANTAGONISTS OF DUSP5 AND METHODS OF USE” (THE MEDICAL COLLEGE OF WISCONSIN, INC., priority 2015, published 2018):
Several values for one entry are separate records, joined by “and”; a condition that tells them apart may be missing. Identical values can stand only once. Counter-ions that a name gives are not always drawn.

What was measured:
full-length DUSP5 = molecular target: T1, full-length DUSP5 (Homo sapiens, UniProt Q16690); test: ERK dephosphorylation assay, full-length DUSP5 with pERK2 substrate, western blot; format: biochemical
T1 construct: an assay was development using ERK2 and full-length DUSP5
T1 sequence (Q16690 1-384): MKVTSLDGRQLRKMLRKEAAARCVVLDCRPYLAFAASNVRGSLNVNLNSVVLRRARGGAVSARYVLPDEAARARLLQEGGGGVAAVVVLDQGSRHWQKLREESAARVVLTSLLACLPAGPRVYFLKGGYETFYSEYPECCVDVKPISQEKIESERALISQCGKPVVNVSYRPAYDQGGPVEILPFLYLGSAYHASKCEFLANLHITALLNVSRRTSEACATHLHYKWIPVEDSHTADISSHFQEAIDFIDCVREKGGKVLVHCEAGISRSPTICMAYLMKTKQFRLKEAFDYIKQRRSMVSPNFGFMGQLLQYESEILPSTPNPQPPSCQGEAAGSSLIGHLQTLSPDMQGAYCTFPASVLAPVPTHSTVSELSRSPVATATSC
Method: ERK Dephosphorylation Assay.
For this assay, 10 ng of GST-tagged recombinant phosphorylated ERK2 (R&D Systems, 1230-KS) was incubated with and without the indicated DUSP5 proteins (0.5 nM final concentration) for 15 min at room temperature, with or without the indicated drugs. The reactions were halted with 2× Laemmli sample buffer and subjected to SDS-PAGE. The proteins were transferred to polyvinylidene difluoride (PVDF) and immunoblotted using antibodies to pERK (Cell Signaling Tech., #9106) and Total ERK (Cell Signaling Tech., #9102). Bound antibodies were visualized using horseradish peroxidase-linked anti-mouse IgG (Cell Signaling Tech, #7076S) and anti-rabbit IgG (Cell Signaling Tech, #7074S), respectively, and ECL reagents (Pierce, 34708) according to the manufacturer's protocol. IC50s were calculated using GraphPad Prism 6 software.
And, the native substrate for DUSP5 is the pERK2 protein, which is much larger and capable of a more complicated range of inter-molecular interactions that the pNPP substrate (which is intended only to mimic the phospho-tyrosine of pERK). […] To this end, an assay was development using ERK2 and full-length DUSP5, monitoring pERK levels in a western blot, as a function of pERK2 substrate concentration. […] This surprising increase in potency for CSD3-2320 (but not NTS) with full length DUSP5 underscores the importance of performing secondary assays with biologically relevant forms of enzyme and substrate.

[1] = tested on: pERK levels in HUVEC cells; test: pERK levels in HUVEC cells, western blot; format: cell-based, Human; details: HUVECs incubated 2 hours, pERK relative to total ERK; Na3VO4 at 200 μM
Method: Cell Culture and Western Blots.
Human Umbilical Vein Endothelial Cells (HUVECs) were maintained in EBM2 media (Lonza, CC-3156) supplemented with a combined serum and growth factor kit (Lonza, CC-4176). Cells were incubated with the indicated concentrations of drug for 2 h and lysed with RIPA buffer (Sigma, R0278) on ice. Cell lysates were cleared by centrifugation at 16,300×g for 30 min. The resulting supernatants were isolated and protein concentration determined by Lowry assay (DC protein assay, BioRad). 2× laemmli sample buffer was added to equal amounts of protein and separated by SDS-PAGE. The protein gels were transferred to polyvinylidene difluoride (PVDF) and immunoblotted using antibodies to phosphorylated ERK (Cell Signaling, #9106) and total ERK (Cell Signaling, #9102). Bound antibodies were visualized using horseradish peroxidase-linked anti-rabbit IgG, anti-mouse IgG (Cell Signaling Tech., #7074 and #7076) and ECL reagents (Thermo Scientific, 34080) according to the manufacturer's protocol.

DUSP5 PD(WT) [2] = molecular target: T2, DUSP5 PD(WT) (Homo sapiens, UniProt Q16690); test: pNPP phosphatase activity assay with DUSP5 PD(WT); format: biochemical; details: 1 mL cuvettes, pNPP substrate
T2 construct: hexa-histidine (N); made in house; host or cells: E. coli BL21(DE3)
T2 sequence (Q16690 178-319 limits assumed): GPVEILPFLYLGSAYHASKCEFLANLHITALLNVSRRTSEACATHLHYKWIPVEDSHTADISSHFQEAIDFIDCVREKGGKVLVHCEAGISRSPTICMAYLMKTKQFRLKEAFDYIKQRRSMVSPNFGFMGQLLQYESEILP

DUSP5 (PD)-WT = molecular target: T3, DUSP5 (PD)-WT (Homo sapiens, UniProt Q16690); test: Phosphatase inhibition profiles (Table 4), initial rates; format: biochemical; details: read-out: IC50 DUSP5 (PD)-WT (mean ± SE)
T3 construct: hexa-histidine (N); made in house; host or cells: E. coli BL21(DE3)
T3 sequence (Q16690 178-319): T2 sequence (Q16690 178-319 limits assumed)

PTPN1 = molecular target: T4, PTPN1 (Homo sapiens, UniProt P18031); test: as above; format: biochemical; details: read-out: IC50 PTPN1 (mean ± SE)
T4 sequence (P18031 1-435): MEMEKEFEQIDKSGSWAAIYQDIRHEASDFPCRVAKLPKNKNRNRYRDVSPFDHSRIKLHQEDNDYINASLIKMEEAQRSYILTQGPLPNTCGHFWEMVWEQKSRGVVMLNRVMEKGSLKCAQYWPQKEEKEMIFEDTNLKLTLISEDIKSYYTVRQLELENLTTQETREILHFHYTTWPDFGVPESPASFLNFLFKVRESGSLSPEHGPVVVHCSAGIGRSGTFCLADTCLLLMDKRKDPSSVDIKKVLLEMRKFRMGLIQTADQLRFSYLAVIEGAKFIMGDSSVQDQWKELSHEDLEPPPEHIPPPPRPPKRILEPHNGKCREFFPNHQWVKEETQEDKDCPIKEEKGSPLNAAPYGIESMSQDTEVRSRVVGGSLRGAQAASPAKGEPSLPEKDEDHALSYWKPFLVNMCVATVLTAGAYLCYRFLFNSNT

SHP-1 = SHP-1 (Homo sapiens, UniProt P29350); test: NCI compound library screen, phosphatase inhibitory activity; format: biochemical
phosphatase [3] = test: Phosphatase inhibitory activity (Example 3, range of activity); format: biochemical
[4] = Aggregation of compounds (nephelometry; detergent treatment); format: physicochemical
Method: Nephelometry is a technique for measuring the relative aggregation of particles in solution, based on the light-scattering properties of molecular aggregates (30). To explore the ability of the chemicals studied herein to form aggregates, which can lead to artifactual inhibition effects, nephelometry was performed. Compounds were tested for aggregation in 96-well plates using a buffer containing 100 mM Tris base, 100 mM sodium chloride, and 5 mM magnesium chloride at pH 7.5. Each compound analyzed in these experiments contained concentrations of compound ranging from 10-100 μM, recorded in quadruplet. Each plate was analyzed at two separate gain values of 52 and 72. Data were collected using a BMG NEPHELOstar Plus, equipped with a 635 nm laser.
To investigate whether Suramin aggregates in solution, a property often investigated with small molecules, we performed detergent treatment assays. […] NTS and Suramin were compared using DUSP5 PD IC50 assays performed with and without detergent. […] We concluded that Suramin forms aggregates in vitro which can lead to non-specific protein inhibition effects. Beyond any adverse implications for repurposing Suramin in this project, the aggregation phenomenon raises more global concerns regarding the current clinical use of Suramin, and may in part explain some of the known toxicity associated with Suramin (32).

PTP1B = PTP1B (Homo sapiens, UniProt P18031); test: NCI compound library screen, phosphatase inhibitory activity; format: biochemical
phosphatase [5] = details: cited from earlier work
DUSP5 PD(WT) [6] = molecular target: T2, DUSP5 PD(WT); test: pNPP phosphatase activity assay with DUSP5 PD(WT); format: biochemical
Text: p-Nitrophenolphosphatase (pNPP) Activity Assay.
To measure enzymatic activity of the DUSP5 PD and the inhibitory capacity of selected molecules, an in vitro phosphatase assay was developed based on previous studies (27). In this assay, DUSP5 PD dephosphorylates the substrate p-nitrophenol phosphate (pNPP, Sigma Aldrich), yielding p-nitrophenolate, which absorbs at 405 nm with an extinction coefficient of 18,000 M-1 cm-1.
Thus, an increase in absorbance at 405 nm corresponds to the turnover of pNPP top-nitrophenolate. The assay was initially optimized in 1 mL quartz cuvettes, then was subsequently optimized for and validated in a 96-well plate format. All IC50 values were obtained using the 96-well plate assay format (see below). The assay buffer contained 100 mM Tris, 100 mM sodium chloride, 5 mM magnesium chloride, and 1 mM dithiothreitol (DTT) at pH 7.5. The pNPP substrate was prepared as a 50 mM stock by dissolving the solid substrate in assay buffer. The DUSP5 PD and pNPP were assayed initially in a cuvette (1 mL total volume) and initial velocities were fitted to the Michaelis-Menten equation (1)
where v is the initial velocity, Vmax is the maximum velocity, Km is the Michaelis constant, and [S] is the concentration of pNPP. Data were fitted using a nonlinear least squares fit to eq. 1, with GraphPad Prism 6 software.
For the 96-well plate validation assay, sodium orthovanadate (Sigma Aldrich) was utilized as a positive control for inhibition (Swarup et al., Biochem Biophys Res Commun. 1982; 107:1104-9.) at a final concentration of 10 μM, to completely block activity. All plate assays were performed in standard 96-well clear bottom plates (Thermo Scientific Nunc) with a total assay volume of 200 μL, using a SpectraMax M5 Microplate Reader (Molecular Devices). The plate validation assay was performed with replicate columns of positive control wells, negative control wells and blank wells. Blank columns contained only buffer and pNPP. Negative control (uninhibited) contained buffer, pNPP, and DUSP5 PD; and, positive control contained the same components, but also contained 10 μM sodium orthovanadate. The plate was then shaken and allowed to equilibrate in the spectrophotometer at 25° C. for 30 min. After incubation, 4 μL of a […] was dispensed into appropriate wells utilizing a single-channel pipette. This produced a final enzyme concentration of 1 μM. Before a read was taken, the plate was shaken for five seconds. The initial rate for the DUSP5 PD reaction was linear for approximately 90 min; and, the plate was kept in the spectrophotometer at 25° C. for an additional 80 min after the kinetic read. The endpoint reading was subsequently taken at 90 min after initiation of reaction. Slopes from the kinetic read, as well as single-point absorbance values at the 90-minute endpoint read, were then averaged. For blank wells and positive control wells, both slope values (continuous assay) and single point absorbance values (fixed time assay) were approximately zero, as expected. Standard deviations were calculated and a Z′ value (Zhang et al., J Biomol Screening. 1999; 4:67-73) subsequently determined using the following equation: […]
IC50 values were obtained using the assay described above, in 96 well plates. The maximum inhibitor concentration screened in any plate was […] and the minimum was 1.5 μM. The IC50 plate was designed so that the first column of wells served as blanks, with wells containing only buffer and substrate. The second column of wells functioned as the plate negative control, with each well containing buffer, substrate and enzyme. The remaining wells in the plate contained buffer, substrate, enzyme, and varying amounts of inhibitor, with inhibitor concentration increasing from left to right across the plate. Data points were collected in triplicate, and inhibitor concentrations were chosen to provide data equally spread on a logarithmic scale. […]

Sequence of SHP-1 (P29350 whole entry): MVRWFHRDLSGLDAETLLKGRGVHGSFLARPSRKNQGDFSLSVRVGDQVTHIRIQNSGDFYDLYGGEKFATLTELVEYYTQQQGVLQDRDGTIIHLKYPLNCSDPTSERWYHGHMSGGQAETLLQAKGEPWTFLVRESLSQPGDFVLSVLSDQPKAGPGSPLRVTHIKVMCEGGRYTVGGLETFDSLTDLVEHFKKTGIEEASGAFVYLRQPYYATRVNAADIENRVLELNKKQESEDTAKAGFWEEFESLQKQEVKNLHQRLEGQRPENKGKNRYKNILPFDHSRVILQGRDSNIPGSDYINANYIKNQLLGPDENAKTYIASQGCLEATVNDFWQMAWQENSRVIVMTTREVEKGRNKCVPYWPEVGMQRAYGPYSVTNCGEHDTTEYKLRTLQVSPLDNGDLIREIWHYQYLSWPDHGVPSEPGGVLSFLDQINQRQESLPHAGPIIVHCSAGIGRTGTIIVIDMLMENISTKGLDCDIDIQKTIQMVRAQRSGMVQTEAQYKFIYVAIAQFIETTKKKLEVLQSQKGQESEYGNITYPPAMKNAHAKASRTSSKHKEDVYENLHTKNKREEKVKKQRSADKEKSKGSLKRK

O=S(=O)([O-])c1cc2c(O)c(c1)Cc1cc(S(=O)(=O)[O-])cc(c1O)Cc1cc(S(=O)(=O)[O-])cc(c1O)Cc1cc(S(=O)(=O)[O-])cc(c1O)C2.[Na+].[Na+].[Na+].[Na+] [RR701]
activity in DUSP5:pERK assay, in words (full-length DUSP5; in vitro, western blot): robust activity

[Na+].[Na+].[Na+].[O]=[V]([O-])([O-])[O-] [sodium orthovanadate]
effect on pERK levels [1]: expected increase in pERK levels
IC50 (DUSP5 PD(WT) [2]): 0.008 ± 0.008 µM

O=S(=O)(O)c1ccc2c(S(=O)(=O)O)cc(S(=O)(=O)O)cc2c1 [NTS, naphthalene 1,3,6-trisulfonate]
IC50 (full-length DUSP5; full-length DUSP5, pERK/ERK2 substrate): 221 ± 87 µM

O=S(=O)(O)c1cc(Oc2cc(S(=O)(=O)O)cc(S(=O)(=O)O)c2O)c(O)c(S(=O)(=O)O)c1 [RR533]
IC50 (DUSP5 (PD)-WT): 26.4 ± 7.2 µM
IC50 (PTPN1): 106 ± 0.1 µM

Nc1cccc2c(O)cc(S(=O)(=O)O)cc12 [RR535]
phosphatase inhibitory activity (SHP-1): phosphatase inhibitory activity
range in which active (phosphatase [3]; monomer): ~1e-06 mM
aggregation [4]: do not aggregate
IC50 (PTPN1): > 1000 µM
phosphatase inhibitory activity (PTP1B): phosphatase inhibitory activity

O=S(=O)(O)c1ccc2cc(N=Nc3cc(S(=O)(=O)O)c4cccnc4c3O)ccc2c1 [NSC-87877]
range of phosphatase inhibition, published compound (phosphatase [5]): ~1.7 mM

O=S(=O)(O)c1cc(O)c2cccc(N=Nc3cccc4c(O)cc(S(=O)(=O)O)cc34)c2c1 [RR601]
IC50 (DUSP5 (PD)-WT): 30 ± 3 µM
range in which active (phosphatase [3]; dimer): ~30 mM
aggregation [4]: do not aggregate
IC50 (PTPN1): 2.5 ± 0.1 µM

O=S(=O)(O)c1cc(S(=O)(=O)O)c2[nH]c3c(S(=O)(=O)O)cc(S(=O)(=O)O)cc3c2c1 [RR506, Carbazole-1,3,6,8-tetrasulfonic acid, Tetrasodium Salt]
IC50's, range in words (DUSP5 PD(WT) [6]; enzyme inhibition (FIG. 3)): mM range

Cc1ccc(C(=O)Nc2ccc(S(=O)(=O)O)c3cc(S(=O)(=O)O)cc(S(=O)(=O)O)c23)cc1NC(=O)c1cccc(NC(=O)Nc2cccc(C(=O)Nc3cc(C(=O)Nc4ccc(S(=O)(=O)O)c5cc(S(=O)(=O)O)cc(S(=O)(=O)O)c45)ccc3C)c2)c1 [Suramin]
inhibition at 1 µM (DUSP5 PD(WT) [6]; 1 μM Suramin, 5 mM pNPP, increasing Triton X-100, read-out: plateau level inhibition with increasing detergent): 30%
effect of detergent on inhibition (DUSP5 PD(WT) [6]; IC50 measurement in presence and absence of 0.5% Triton): loss of some inhibitory capability in the presence of detergent
mechanism of inhibition (DUSP5 PD(WT) [6]; inhibition profile versus pNPP): competitive inhibition
Ki (DUSP5 PD(WT) [6]; read-out: Ki, competitive inhibition, varied pNPP and inhibitor): 24.6 µM and 25 µM
effect on pERK levels [1]: significant decrease in pERK levels
aggregation [4]: Aggregates
